The values that follow are results of earlier work, collected in patent publication US20190249218A1, “Method, Medium and Kit for Detecting Multiple Aminoglycoside Resistance Including 16S rRNA Methylase Mediated Resistance in Gram-Negative Bacteria” (priority 2016, published 2019).

For series [1], the system named is 16S rRNA methylase producers. To be noted: reference (13); cited from earlier work.
The subject of series [2] is aminoglycoside modifying enzymes such as the nucleotidyl, acetyl and phosphoryl enzymes. The conditions noted are these: reference (12); cited from earlier work.

Turning to `CN[C@@H]1[C@@H](O)[C@@H](O[C@@H]2[C@@H](O)[C@H](O[C@H]3OC(CNCCO)=CC[C@H]3N)[C@@H](N)C[C@H]2NC(=O)[C@@H](O)CCN)OC[C@]1(C)O` [Plazomicin], in series [1], the “activity against 16S rRNA methylase producers” value was “inactive”. For the same molecule, in series [2], the “activity against aminoglycoside modifying enzymes” value is “active”.
